The source of these data is paper PMC10245392, “Fed- and Fasted-State Performance of Pretomanid Amorphous Solid Dispersions Formulated with an Enteric Polymer” (Molecular Pharmaceutics, 2023).

SMILES strings stand for the structures. Converted amounts (≈) assume the structure as drawn. “And” between values parts separate entries of the source, which are not always exact repeats. Identical values can stand only once. Like-named read-outs stand apart in the source and are kept apart here. A value given as a limit tells only on which side of the number the result lay.

The conditions of data set [1]: the highest pKa value at 25 °C; ref 42 and references of Table S2; cited from earlier work.
The nature of data set [2]: physchem. As to conditions: kinetic from dmso stock.
For data set [3] the following is noted: humans, 200 mg PTM with high-calorie, high-fat meal; cited from earlier work.
Data set [4] is described as follows: Glass transition temperature by DSC. The data set is classed as physicochemical. The note with it: for reduced glass transition temperature (Tg/Tm): calculated as Tg/Tm. On the procedure: The glass transition temperature (Tg) of ASD samples was measured by a TA Q2000 differential scanning calorimeter (DSC) equipped with an RCS90 refrigeration unit (TA Instruments, New Castle, DE). The temperature calibration was performed using indium and tin, while enthalpy calibration was conducted with indium. The samples (5–10 mg) were added to aluminum pans with a pinhole lid (Tzero pan, TA Instrument, DE). The sample was equilibrated at −20 °C and heated from −20 to 210 °C at 5 °C/min then cooled back down to −20 °C at 10 °C/min under a nitrogen flow of 50 mL/min. The heating and cooling cycle was repeated three times to remove residual solvent and thermal history, and the last cycle was used for analysis.

The conditions of data set [5]: monkeys, PTM suspension in 0.5% sodium carboxymethyl cellulose; cited from earlier work.
For data set [6] the following is noted: rats, PTM with hydroxypropyl-β-cyclodextrin; cited from earlier work.
Test in data set [7]: not given
This is another data set of the same source.

A short description of data set [8]: physchem.
The conditions of data set [9]: cited from earlier work.
For data set [10] the following is noted: guinea pig, in vivo; cited from earlier work.
Data set [11] is described as follows: Drug nucleation induction time (UV extinction at 440 nm). The note with it: for induction time at 160 μg/mL: no polymer, 37 °C. The data set is classed as physicochemical.

In general, pKa refers to the negative logarithm of the acid dissociation constant. As for `CN(C)CCO` [2-Dimethylaminoethanol], in data set [1], the pKa is given as 9.23.

For orientation: solubility means the dissolved amount per volume that the medium holds. A low value points to a poorly soluble substance. What is called thermodynamic solubility is solubility found after equilibrating the solid with the medium. Take `O=[N+]([O-])c1cn2c(n1)OC[C@@H](OCc1ccc(OC(F)(F)F)cc1)C2` [PTM, Pretomanid]: the solubility in [2] (pH 1.6, simulated gastric fluid) is 141 ± 3.7 µg/mL (≈ 392 µM); in data set [2] (pH 3, aqueous buffer) it was 143 ± 2.4 µg/mL (≈ 399 µM); in [2] (pH 5, aqueous buffer) it was 160 ± 5.7 µg/mL (≈ 444 µM); in [2] (pH 6.5, aqueous buffer), 166 ± 6.2 µg/mL (≈ 462 µM); in data set [2] (pH 6.5, fassif), 308 ± 12 µg/mL (≈ 857 µM); in data set [8] (37 °C, pH 1.6, simulated gastric fluid, thermodynamic from solid) it was 15.2 ± 1.4 µg/mL (≈ 42.3 µM). In addition, the solubility was determined as 17.8 ± 0.3 µg/mL (≈ 49.5 µM) in data set [8] (37 °C, pH 3, aqueous buffer, thermodynamic from solid); 16.8 ± 0.1 µg/mL (≈ 46.8 µM) in data set [8] (37 °C, pH 5, aqueous buffer, thermodynamic from solid); 17 ± 0.3 µg/mL (≈ 47.3 µM) in [8] (37 °C, pH 5.8, aqueous buffer, thermodynamic from solid); 108.1 ± 0.1 µg/mL (≈ 301 µM) in data set [8] (37 °C, pH 5.8, fessif, thermodynamic from solid); 16.2 ± 1.4 µg/mL (≈ 45.1 µM) in [8] (37 °C, pH 6.5, aqueous buffer, thermodynamic from solid); 53.8 ± 4 µg/mL (≈ 150 µM) in [8] (37 °C, pH 6.5, fassif, thermodynamic from solid). Besides, in [8] (pH 5.8), the solubility was approximately 110 µg/mL (≈ 306 µM). In data set [3], the “increase in AUC0-inf with food” value is 88%. In addition, the “increase in Cmax with food” value in [3] was 76%. For the same molecule, the “reduced glass transition temperature (Tg/Tm)” value in data set [4] is given as 0.67. Moreover, in data set [4] (neat drug), the “Tg (glass transition temperature)” value came to 10 °C. Moreover, the “factor of increase of equilibrium solubility” value (pH 5.8) is approximately 6 and the “factor of increase of equilibrium solubility” value (pH 6.5) is on record as approximately 3. Also, the results for the mean oral bioavailability in [5] and in data set [6] were 19% and 52%, respectively. Moreover, the “A/C ratio (amorphous/crystalline solubility ratio)” value came to 9.3 in data set [7] (HCl solution (pH 1.6)), 8.1 in [7] (phosphate buffer (pH 3.0)), 9.5 in data set [7] (phosphate buffer (pH 5.0)) and 10.2 in data set [7] (phosphate buffer (pH 6.5)). In addition, in data set [7] (buffer solutions, overall), the “amorphous/crystalline solubility (A/C) ratio” value is 8–10. Besides, the solubility (thermodynamic) in [8] was in the range of 15 to 18 µg/mL (≈ 41.8 to 50.1 µM). The water solubility in data set [9] was 10 to 20 µg/mL. Also, the systemic exposure in data set [10] is 6.7–13.5%. Further, the induction time was 77.6 ± 13.6 min and ~77 min in data set [11]; approximately 22 min in data set [11] (PTM 80 μg/mL, PB (pH 6.5), 100 μg/mL HPMC). For the same molecule, the “induction time at 160 μg/mL” value in data set [11] (FaSSIF V1 (pH 6.5)) is 0.9 ± 0.3 min; in data set [11] (HCl solution (pH 1.6)) it was 1.6 ± 0.2 min; in data set [11] (phosphate buffer (pH 3.0)), 1.3 ± 0.1 min; in data set [11] (phosphate buffer (pH 5.0)), 1.6 ± 0.2 min; in [11] (phosphate buffer (pH 6.5)) it was 1.4 ± 0.2 min. Moreover, the “nucleation induction time in solution” value in data set [11] (media of Table 2, no polymer) is given as “less than 2 min”. The “induction time (no crystallization observed up to)” value in data set [11] (pH 6.5) is reported as more than 1000 min.

Turning to `C[C@]1(COc2ccc(N3CCC(Oc4ccc(OC(F)(F)F)cc4)CC3)cc2)Cn2cc([N+](=O)[O-])nc2O1` [delamanid], in [4], the “reduced glass transition temperature (Tg/Tm)” value was 0.64. Also, in [9] (neat drug), the “Tg (glass transition temperature)” value is approximately 43 °C.
